According to US11938110B2, “Use of verapamil for the treatment of SARS-Cov-2 induced COVID-19” (priority 2020, dated 2024):
Structures can show the parent of a compound that is named as a salt.

Tests used:
[1] = test system: COVID-19 patients with hypertension; conditions: oral administration; cited from earlier work
[2] = test system: SARS-COV-2 (USA-WA1/2020); conditions: Huh7 cells, MOI 0.1, 6.25, 12.5, 25 and 50 uM, compared to DMSO, 48 hours after infection
[3] = test system: Huh7 cells
[4] = test system: patients with Chronic obstructive pulmonary disease (COPD); conditions: nasal spray

Structure (SMILES)	case fatality rate of patients with hypertension [1]	viral RNA in the supernatant [2]	toxicity against Huh7 cells [3]	blood oxygen pressure [4]	correction of blood pH [4]	oxygen saturation after inhalation ([4]; after inhalation)	oxygen saturation before inhalation ([4]; baseline)
CCOC(=O)C1=C(COCCN)NC(C)=C(C(=O)OC)C1c1ccccc1Cl (stereo not shown) [amlodipine besylate]	distinctly reduced	–	–	–	–	–	–
COc1ccc(CCN(C)CCCC(C#N)(c2ccc(OC)c(OC)c2)C(C)C)cc1OC (stereo not shown) [verapamil hydrochloride]	–	dose-dependent reduction	no significant toxicity	improved	improved	95.75±14.57	91.2±12.15
